The values that follow come from patent publication US20240425524A1, “SPIROTRICYCLE RIPK1 INHIBITORS AND METHODS OF USES THEREOF” (Merck Sharp & Dohme LLC, priority 2021, published 2024).

In general, EC50 refers to the midpoint of the concentration-response curve.

Sequence of RIPK1 (Q13546 1-327): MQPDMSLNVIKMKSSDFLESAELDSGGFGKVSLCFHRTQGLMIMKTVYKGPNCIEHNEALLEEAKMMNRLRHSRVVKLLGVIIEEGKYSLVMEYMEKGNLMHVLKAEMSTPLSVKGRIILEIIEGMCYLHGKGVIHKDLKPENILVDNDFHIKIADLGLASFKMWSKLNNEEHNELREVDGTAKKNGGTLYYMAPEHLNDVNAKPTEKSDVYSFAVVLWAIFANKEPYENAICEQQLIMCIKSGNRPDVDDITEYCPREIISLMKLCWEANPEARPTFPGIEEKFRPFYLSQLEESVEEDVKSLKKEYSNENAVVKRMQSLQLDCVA

This experiment deals with RIPK1 (Homo sapiens (Human), UniProt Q13546). Put plainly: RIPK1-ADP-Glo Enzymatic Assay. It is filed as biochemical. The following applies: recombinant GST-RIPK1 kinase domain (residues 1-327), 25 nM, ten-point titration, 30 minutes pre-incubation. In a few lines:
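GST-RIPK1 kinase domain (residues 1-327, Sf21-expressed; 25 nM final) was pre-incubated 30 min at ambient temperature with compound (10-point 1:3 series from 100000 nM, 1% DMSO) in HEPES pH 7.3 buffer with 20 mM MgCl2. The reaction was started with 900 μM ATP (addition solution) and 3 μM dephosphorylated MBP and ran 150 min. Read-out was ADP-Glo luminescence, with EC50 from a four-parameter fit.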
(In general: ADP-Glo turns the ADP formed in a reaction into a luminescent signal.)
Regarding `O=C(c1c(F)ccc(F)c1F)N1CCC2(CC1)CN1CC[C@@H](c3cc(F)cc(F)c3)N1C2=O` [Example 4.9, (S)-7′-(3,5-difluorophenyl)-1-(2,3,6-trifluorobenzoyl) dihydro-1′H,3′H,5′H-spiro[piperidine-4,2′-pyrazolo[1,2-a]pyrazol]-l′-one], the EC50 amounted to 0.031 µM.
The value for `O=C(c1cc(F)c(F)c(F)c1)N1CCC2(CC1)CN1CC[C@@H](c3cc(F)cc(F)c3)N1C2=O` [Example 4.10, (S)-7′-(3,5-difluorophenyl)-1-(3,4,5-trifluorobenzoyl) dihydro-1′H,3′H,5′H-spiro[piperidine-4,2′-pyrazolo[1,2-a]pyrazol]-l′-one] was 0.067 µM; that for `O=C(c1cc(F)c(F)cc1F)N1CCC2(CC1)CN1CC[C@@H](c3cc(F)cc(F)c3)N1C2=O` [Example 4.11, (S)-7′-(3,5-difluorophenyl)-1-(2,4,5-trifluorobenzoyl) dihydro-1′H,3′H,5′H-spiro[piperidine-4,2′-pyrazolo[1,2-a]pyrazol]-l′-one] was 0.019 µM; that for `O=C(c1cc(F)cc(F)c1F)N1CCC2(CC1)CN1CC[C@@H](c3cc(F)cc(F)c3)N1C2=O` [Example 4.12, (S)-7′-(3,5-difluorophenyl)-1-(2,3,5-trifluorobenzoyl) dihydro-1′H,3′H,5′H-spiro[piperidine-4,2′-pyrazolo[1,2-a]pyrazol]-l′-one] was 0.026 µM.
As to `Cc1ccc(F)cc1C(=O)N1CCC2(CC1)CN1CC[C@@H](c3cc(F)cc(F)c3)N1C2=O` [Example 4.13, (S)-7′-(3,5-difluorophenyl)-1-(5-fluoro-2-methylbenzoyl) dihydro-1′H,3′H,5′H-spiro[piperidine-4,2′-pyrazolo[1,2-a]pyrazol]-l′-one], the EC50 came out at 0.335 µM.
As for `COc1ccc(F)cc1C(=O)N1CCC2(CC1)CN1CC[C@@H](c3cc(F)cc(F)c3)N1C2=O` [Example 4.14, (S)-7′-(3,5-difluorophenyl)-1-(5-fluoro-2-methoxybenzoyl) dihydro-l′H,3′H,5′H-spiro[piperidine-4,2′-pyrazolo[1,2-a]pyrazol]-l′-one], the EC50 amounted to 0.386 µM.
For `N#Cc1ccc(C(=O)N2CCC3(CC2)CN2CC[C@@H](c4cc(F)cc(F)c4)N2C3=O)cc1F` [Example 4.15, (S)-4-(7′-(3,5-difluorophenyl)-1′-oxodihydro-1′H,3′H,5′H-spiro[piperidine-4,2′-pyrazolo[1,2-a]pyrazole]-1-carbonyl)-2-fluorobenzonitrile] the value was 0.858 µM; for `COc1ccc(C(=O)N2CCC3(CC2)CN2CC[C@@H](c4cc(F)cc(F)c4)N2C3=O)cc1F` [Example 4.16, (S)-7′-(3,5-difluorophenyl)-1-(3-fluoro-4-methoxybenzoyl) dihydro-l′H,3′H,5′H-spiro[piperidine-4,2′-pyrazolo[1,2-a]pyrazol]-l′-one], 0.083 µM.
For `O=C(c1cncc(F)c1)N1CCC2(CC1)CN1CC[C@@H](c3cc(F)cc(F)c3)N1C2=O` [Example 4.17, (S)-7′-(3,5-difluorophenyl)-1-(5-fluoronicotinoyl) dihydro-1′H,3′H,5′H-spiro[piperidine-4,2′-pyrazolo[1,2-a]pyrazol]-l′-one], the EC50 came to 0.446 µM.
For the compound `Cc1cc(F)cc(C(=O)N2CCC3(CC2)CN2CC[C@@H](c4cc(F)cc(F)c4)N2C3=O)c1` [Example 4.18, (S)-7′-(3,5-difluorophenyl)-1-(3-fluoro-5-methylbenzoyl) dihydro-1′H,3′H,5′H-spiro[piperidine-4,2′-pyrazolo[1,2-a]pyrazol]-l′-one], the EC50 amounted to 0.018 µM.
Regarding `O=C(c1cc(F)cc(Cl)c1)N1CCC2(CC1)CN1CC[C@@H](c3cc(F)cc(F)c3)N1C2=O` [Example 4.19, (S)-1-(3-chloro-5-fluorobenzoyl)-7′-(3,5-difluorophenyl) dihydro-1′H,3′H,5′H-spiro[piperidine-4,2′-pyrazolo[1,2-a]pyrazol]-l′-one], the EC50 was found to be 0.018 µM.
Consider `O=C(c1cc(F)ccc1Cl)N1CCC2(CC1)CN1CC[C@@H](c3cc(F)cc(F)c3)N1C2=O` [Example 4.20, (S)-1-(2-chloro-5-fluorobenzoyl)-7′-(3,5-difluorophenyl) dihydro-1′H,3′H,5′H-spiro[piperidine-4,2′-pyrazolo[1,2-a]pyrazol]-l′-one], for which the 50% effective concentration (EC50) was found to be 0.05 µM.
Consider `O=C(c1cc(F)ccc1F)N1CCC2(CC1)CN1CC[C@@H](c3cc(F)cc(F)c3)N1C2=O` [Example 4.21, (S)-1-(2,5-difluorobenzoyl)-7′-(3,5-difluorophenyl) dihydro-1′H,3′H,5′H-spiro[piperidine-4,2′-pyrazolo[1,2-a]pyrazol]-l′-one], for which the EC50 was found to be 0.015 µM.
Consider `Cc1ccc(C(=O)N2CCC3(CC2)CN2CC[C@@H](c4cc(F)cc(F)c4)N2C3=O)cc1F` [Example 4.22, (S)-7′-(3,5-difluorophenyl)-1-(3-fluoro-4-methylbenzoyl) dihydro-1′H,3′H,5′H-spiro[piperidine-4,2′-pyrazolo[1,2-a]pyrazol]-l′-one], for which the EC50 worked out at 0.046 µM.
For the compound `O=C(c1ccc(Cl)c(F)c1)N1CCC2(CC1)CN1CC[C@@H](c3cc(F)cc(F)c3)N1C2=O` [Example 4.23, (S)-1-(4-chloro-3-fluorobenzoyl)-7′-(3,5-difluorophenyl) dihydro-1′H,3′H,5′H-spiro[piperidine-4,2′-pyrazolo[1,2-a]pyrazol]-l′-one], the concentration for a half-maximal effect (EC50) was determined as 0.023 µM.
With `O=C(c1ccc(F)c(F)c1)N1CCC2(CC1)CN1CC[C@@H](c3cc(F)cc(F)c3)N1C2=O` [Example 4.24, (S)-1-(3,4-difluorobenzoyl)-7′-(3,5-difluorophenyl) dihydro-1′H,3′H,5′H-spiro[piperidine-4,2′-pyrazolo[1,2-a]pyrazol]-l′-one], the EC50 was found to be 0.032 µM.
The value for `O=C(c1cccc(F)c1)N1CCC2(CC1)CN1CC[C@@H](c3cc(F)cc(F)c3)N1C2=O` [Example 4.25, (S)-7′-(3,5-difluorophenyl)-1-(3-fluorobenzoyl) dihydro-1′H,3′H,5′H-spiro[piperidine-4,2′-pyrazolo[1,2-a]pyrazol]-l′-one] was 0.035 µM; that for `Cc1cc(F)c(C(=O)N2CCC3(CC2)CN2CC[C@@H](c4cc(F)cc(F)c4)N2C3=O)cc1F` [Example 4.26, (S)-1-(2,5-difluoro-4-methylbenzoyl)-7′-(3,5-difluorophenyl) dihydro-1′H,3′H,5′H-spiro[piperidine-4,2′-pyrazolo[1,2-a]pyrazol]-l′-one] was 0.023 µM.
Turning to `COc1cc(F)cc(C(=O)N2CCC3(CC2)CN2CC[C@@H](c4cc(F)cc(F)c4)N2C3=O)c1` [Example 4.27, (S)-7′-(3,5-difluorophenyl)-1-(3-fluoro-5-methoxybenzoyl) dihydro-l′H,3′H,5′H-spiro[piperidine-4,2′-pyrazolo[1,2-a]pyrazol]-l′-one], the EC50 was determined as 0.026 µM.
Regarding `O=C(c1cccc(F)c1Cl)N1CCC2(CC1)CN1CC[C@@H](c3cc(F)cc(F)c3)N1C2=O` [Example 4.28, (S)-1-(2-chloro-3-fluorobenzoyl)-7′-(3,5-difluorophenyl)dihydro-1′H,3′H,5′H-spiro[piperidine-4,2′-pyrazolo[1,2-a]pyrazol]-l′-one], the half-maximal effective concentration (EC50) worked out at 0.036 µM.
For `O=C(c1cccc(F)c1F)N1CCC2(CC1)CN1CC[C@@H](c3cc(F)cc(F)c3)N1C2=O` [Example 4.29, (S)-1-(2,3-difluorobenzoyl)-7′-(3,5-difluorophenyl) dihydro-1′H,3′H,5′H-spiro[piperidine-4,2′-pyrazolo[1,2-a]pyrazol]-l′-one] the value was 0.023 µM.
